Test results as given in patent US20080039629A1, “Benzothniazole compositions and their use as ubiquition ligation inhibitors” (RIGEL PHARMACEUTICALS, INC., priority 2003, published 2008).

Molecular target: T1, E1 and His-E2 Ubch10 (Homo sapiens, UniProt P22314)
T1 construct: host or cells: E. coli (His-Ubch10); Sf9 insect cells (E1)
T1 sequence (P22314 1-1058): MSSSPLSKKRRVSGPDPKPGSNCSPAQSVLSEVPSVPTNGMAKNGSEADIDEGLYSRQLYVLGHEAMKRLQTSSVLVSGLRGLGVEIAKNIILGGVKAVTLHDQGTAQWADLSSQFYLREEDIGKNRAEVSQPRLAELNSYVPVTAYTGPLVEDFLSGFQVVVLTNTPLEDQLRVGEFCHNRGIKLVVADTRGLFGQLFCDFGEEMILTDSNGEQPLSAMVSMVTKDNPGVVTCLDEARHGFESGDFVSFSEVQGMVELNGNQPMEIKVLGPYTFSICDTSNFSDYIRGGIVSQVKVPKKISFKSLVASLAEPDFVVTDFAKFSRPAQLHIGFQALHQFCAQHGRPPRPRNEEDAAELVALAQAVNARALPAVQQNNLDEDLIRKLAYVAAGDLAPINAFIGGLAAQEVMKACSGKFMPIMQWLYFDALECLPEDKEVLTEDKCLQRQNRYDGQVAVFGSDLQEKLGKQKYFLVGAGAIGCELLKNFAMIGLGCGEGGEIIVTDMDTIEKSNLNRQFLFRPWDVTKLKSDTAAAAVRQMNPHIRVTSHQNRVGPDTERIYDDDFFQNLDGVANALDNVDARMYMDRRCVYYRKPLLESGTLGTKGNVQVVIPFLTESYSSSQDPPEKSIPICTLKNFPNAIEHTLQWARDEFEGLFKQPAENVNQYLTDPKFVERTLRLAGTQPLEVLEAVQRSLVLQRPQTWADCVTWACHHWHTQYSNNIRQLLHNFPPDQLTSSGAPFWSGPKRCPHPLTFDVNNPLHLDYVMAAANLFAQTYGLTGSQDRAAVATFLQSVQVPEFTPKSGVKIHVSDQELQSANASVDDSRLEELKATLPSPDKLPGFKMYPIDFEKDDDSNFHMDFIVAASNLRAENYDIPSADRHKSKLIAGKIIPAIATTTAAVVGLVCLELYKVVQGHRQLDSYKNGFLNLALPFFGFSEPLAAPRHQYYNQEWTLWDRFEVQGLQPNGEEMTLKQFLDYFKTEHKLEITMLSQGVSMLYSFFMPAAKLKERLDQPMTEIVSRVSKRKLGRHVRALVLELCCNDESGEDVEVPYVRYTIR
Test: E1 to E2 transfer assay, His-E2 Ubch10, 1.0 μM ATP (low ATP)
Type: biochemical
Conditions: Table 5, ATP inhibition properties; inhibition measured using IC50 values
Excerpt: Biological assays for determining the transfer of ubiquitin from the E1 activating agent to the E2 conjugating agent are described in U.S. patent application Ser. Nos. 09/542,497 and 09/826,312 as well as in the PCT Application WO 01/75145, all of which are incorporated by reference in their entirety. The following assay example illustrates one way by which the ubiquitin ligase inhibitory activity of the compounds of the invention can be assayed. This assay example is not meant to limit in any way the use of the compounds of the invention as ubiquitin ligase inhibitors.
The attachment of a ubiquitin moiety to the E2 conjugating agent was assayed using Flag-ubiquitin that was purified from E. coli, E2 Ubch10 that was purified as a His-Ubch10 from E. coli, and E1 that was purified from Sf9 insect cells (Affiniti Research Products, Exeter, U.K.). The wells of a Nickel-substrate 96-well plate (Pierce Chemical) were blocked with 100 μl of 1% casein/phosphate buffered saline (PBS) for 1 hour at room temperature. The blocked Nickel-substrate plate was then washed three times with 200 μl of PBST (0.1% Tween-20 in PBS). Subsequently, Flag-ubiquitin reaction solution was added to each well so that the final concentration was 62.5 mM Tris pH 7.5, […], 0.75 mM DTT, 1.0 μM ATP (low ATP), and 100 ng Flag-ubiquitin. The final reaction solution volume was fixed to 80 μl with Millipore-filtered water. To this was added the following: a ubiquitin agent inhibitor in 10 μl of DMSO, 10 μl of E1 and His-E2 Ubch10 in 20 mM Tris buffer, pH 7.5, and 5% glycerol so that there was 10 ng/well of E1 and 20 ng/well of His-E2 Ubch10. The reaction was then allowed to proceed at room temperature for 1 hour.
After 1 hour, the wells were washed three times with 200 μl of PBST and the amount of E2-ubiquitin complex was measured. For measuring the amount of the E2-ubiquitin complex, 100 μl of Mouse anti-flag diluted 1:10,000 (Sigma Aldrich Fluka Chemicals, St. Louis, Mo.) and anti-mouse HRP diluted 1:15,000 (Jackson Immunoresearch labs, West Grove, Pa.) in PBST were added to each well and allowed to incubate at room temperature for another hour. The wells were then washed three times with 200 μl of PBST and 100 μl of luminol substrate (⅕ dilution) was added. The luminescence of each well was then measured using a […] to calculate the amount of E2-ubiquitin complex. This procedure was repeated using His-E2 Ubch5C instead of His-E2 Ubch10.
The table below illustrates the inhibitory properties of the pharmaceutical compostions of the invention comprising the compounds listed in the table using the assays described above. Inhibition was measured using IC50 values.

| SMILES | UBC10 |
| --- | --- |
| COc1ccc2nc(NC(=O)c3ccc(Cl)cc3Cl)sc2n1 [Compound 140, 2,4-dichloro-N-(5-methoxythiazolo[5,4-b]pyridin-2-yl)benzamide] | −− (−− indicates marginal or no inhibition detected with this assay) |
| COc1ccc2nc(NC(=O)C3CCCN3S(=O)(=O)c3ccc(C)cc3)sc2c1 (stereo not shown) [Compound 37, N-(6-methoxybenzo[d]thiazol-2-yl)-1-tosylpyrrolidine-2-carboxamide] | −− (−− indicates marginal or no inhibition detected with this assay) |
| COc1ccc2nc(NC(=O)c3ccc(S(=O)(=O)N4CCCC4)cc3)sc2c1 [Compound 34, N-(6-methoxybenzo[d]thiazol-2-yl)-4-(pyrrolidin-1-ylsulfonyl)benzamide] | ++ (++ indicates inhibition at 50 μM or or less) |
| COc1ccc2nc(NC(=O)Nc3ccccc3)sc2c1 [Compound 98, 1-(6-methoxybenzo[d]thiazol-2-yl)-3-phenylurea] | −− (−− indicates marginal or no inhibition detected with this assay) |
| COc1ccc2nc(NC(=O)c3cccs3)sc2n1 [Compound 138, N-(5-methoxythiazolo[5,4-b]pyridin-2-yl)thiophene-2-carboxamide] | ++ (++ indicates inhibition at 50 μM or or less) |
| O=C(Nc1nc2ccccc2s1)c1ccc(Br)cc1 [Compound 172, N-(benzo[d]thiazol-2-yl)-4-bromobenzamide] | −− (−− indicates marginal or no inhibition detected with this assay) |
| COc1ccc2nc(NC(=O)c3cccc([N+](=O)[O-])c3)sc2c1 [Compound 54, N-(6-methoxybenzo[d]thiazol-2-yl)-3-nitrobenzamide] | −− (−− indicates marginal or no inhibition detected with this assay) |
| COc1ccc2nc(NC(=O)c3ccccc3)sc2c1 [Compound 32, N-(6-methoxybenzo[d]thiazol-2-yl)benzamide] | ++ (++ indicates inhibition at 50 μM or or less) |
| COc1ccc2nc(NC(=O)c3ccc(Oc4ccccc4)cc3)sc2c1 [Compound 35, N-(6-methoxybenzo[d]thiazol-2-yl)-4-phenoxybenzamide] | −− (−− indicates marginal or no inhibition detected with this assay) |
| COc1ccc2nc(NC(=O)c3ccc(F)cc3)sc2n1 [Compound 154, 4-fluoro-N-(5-methoxythiazolo[5,4-b]pyridin-2-yl)benzamide] | ++ (++ indicates inhibition at 50 μM or or less) |
| COc1ccc2nc(N3C(=O)c4ccccc4C3=O)sc2c1 [Compound 51, 2-(6-methoxybenzo[d]thiazol-2-yl)isoindoline-1,3-dione] | ++ (++ indicates inhibition at 50 μM or or less) |
| Cc1ccc(C(=O)Nc2nc3ccc(OC(F)(F)F)cc3s2)cc1 [Compound 75, 4-methyl-N-(6-(trifluoromethoxy)benzo[d]thiazol-2-yl)benzamide] | −− (−− indicates marginal or no inhibition detected with this assay) |
| COC(=O)c1ccc(C(=O)Nc2nc3ccc(N)cc3s2)cc1 [Compound 74, methyl 4-((6-aminobenzo[d]thiazol-2-yl)carbamoyl)benzoate] | −− (−− indicates marginal or no inhibition detected with this assay) |
| Cc1ccc(C(=O)Nc2nc3ccc(S(N)(=O)=O)cc3s2)cc1 [Compound 73, N-[6-(aminosulfonyl)-1,3-benzothiazol-2-yl]-4-methylbenzamide] | −− (−− indicates marginal or no inhibition detected with this assay) |
| CCCc1ccc(C(=O)Nc2nc3ccccc3s2)cc1 [Compound 170, N-(benzo[d]thiazol-2-yl)-4-propylbenzamide] | −− (−− indicates marginal or no inhibition detected with this assay) |
| COC(=O)c1ccc(C(=O)Nc2nc3ccc(OC)cc3s2)cc1 [Compound 26, methyl 4-((6-methoxybenzo[d]thiazol-2-yl)carbamoyl)benzoate] | ++ (++ indicates inhibition at 50 μM or or less) |
| CCOc1ccc2nc(NC(=O)c3ccc(Cl)c(Cl)c3)sc2c1 [Compound 96, 3,4-dichloro-N-(6-ethoxybenzo[d]thiazol-2-yl)benzamide] | ++ (++ indicates inhibition at 50 μM or or less) |
| COc1ccc2nc(NC(=O)c3ccc(OC(C)=O)cc3)sc2c1 [Compound 27, 4-((6-methoxybenzo[d]thiazol-2-yl)carbamoyl)phenyl acetate] | ++ (++ indicates inhibition at 50 μM or or less) |
| COc1ccc(C(=O)Nc2nc3ccc(OC)nc3s2)cc1 [Compound 151, 4-methoxy-N-(5-methoxythiazolo[5,4-b]pyridin-2-yl)benzamide] | ++ (++ indicates inhibition at 50 μM or or less) |
| COc1ccc2nc(NC(=O)c3ccco3)sc2c1 [Compound 87, N-(6-methoxybenzo[d]thiazol-2-yl)furan-2-carboxamide] | ++ (++ indicates inhibition at 50 μM or or less) |
| CCOc1ccc2nc(NC(=O)c3ccc(C)cc3)sc2c1 [Compound 92, N-(6-ethoxybenzo[d]thiazol-2-yl)-4-methylbenzamide] | −− (−− indicates marginal or no inhibition detected with this assay) |
| CC(=O)Nc1ccc2nc(NC(=O)c3ccc(C)cc3)sc2c1 [Compound 72, N-(6-acetamidobenzo[d]thiazol-2-yl)-4-methylbenzamide] | −− (−− indicates marginal or no inhibition detected with this assay) |
| COc1ccc2nc(NC(=O)c3ccc([N+](=O)[O-])c(C)c3)sc2c1 [Compound 20, N-(6-methoxybenzo[d]thiazol-2-yl)-3-methyl-4-nitrobenzamide] | −− (−− indicates marginal or no inhibition detected with this assay) |
| COc1ccc2nc(NC(=O)c3ccc(Cl)cc3)sc2c1 [Compound 30, 4-chloro-N-(6-methoxybenzo[d]thiazol-2-yl)benzamide] | ++ (++ indicates inhibition at 50 μM or or less) |
| COc1ccc2nc(NC(=O)c3ccc([N+](=O)[O-])cc3)sc2c1 [Compound 24, N-(6-methoxybenzo[d]thiazol-2-yl)-4-nitrobenzamide] | ++ (++ indicates inhibition at 50 μM or or less) |
| O=C(O)c1ccc2c(c1)C(=O)N(c1nc3ccccc3s1)C2=O [Compound 181, 2-(benzo[d]thiazol-2-yl)-1,3-dioxosioindoline-5-carboxylic acid] | −− (−− indicates marginal or no inhibition detected with this assay) |
| COc1ccc2nc(NC(=O)c3sccc3Cl)sc2n1 [Compound 144, 3-chloro-N-(5-methoxythiazolo[5,4-b]pyridin-2-yl)thiophene-2-carboxamide] | −− (−− indicates marginal or no inhibition detected with this assay) |
| COc1ccc2nc(NC(=O)c3sccc3Cl)sc2c1 [Compound 104, 3-chloro-N-(6-methoxybenzo[d]thiazol-2-yl)thiophene-2-carboxamide] | −− (−− indicates marginal or no inhibition detected with this assay) |
